Test results taken from US9192577B2, “Pharmaceutical compositions comprising a basic drug compound, a surfactant, and a physiologically tolerable water soluble acid” (Janssen Pharmaceutica NV, priority 2002, dated 2015).

What was measured:
[1] = cytotoxicity (CC50) in mock-infected MT-4 cells (MTT); assay type: cell-based; details: human, mock-infected MT-4 cells, −log CC50, MTT
Description: (§1) A rapid, sensitive and automated assay procedure was used for the in vitro evaluation of anti-HIV agents. […] Inhibition of the HIV-induced cytopathic effect was used as the end point. The viability of both HIV- and mock-infected cells was assessed spectrophotometrically via the in situ reduction of 3-(4,5-dimethylthiazol-2-yl)-2,5-diphenyltetrazolium bromide (MTT). The 50% cytotoxic concentration (CC50 in M) was defined as the concentration of compound that reduced the absorbance of the mock-infected control sample by 50%. The percent protection achieved by the compound in HIV-infected cells was calculated by the following formula:
(§2) [formula] whereby (ODT)HIV is the optical density measured with a given concentration of the test compound in HIV-infected cells; (ODC)HIV is the optical density measured for the control untreated HIV-infected cells; (ODC)MOCK is the optical density measured for the control untreated mock-infected cells; all optical density values were determined at 540 nm. The dose achieving 50% protection according to the above formula was defined as the 50% inhibitory concentration (IC50 in M). The ratio of CC50 to IC50 was defined as the selectivity index (SI).

HIV = experiment: in vitro anti-HIV assay: inhibition of HIV-induced cytopathic effect in MT-4 cells (MTT); assay type: cell-based; details: for pSI: pSI = pCC50-pIC50 (selectivity index CC50/IC50); for IC50: Human immunodeficiency virus 1, MT4, −log IC50, 50% protection against HIV-induced cytopathic effect in MT-4 cells, MTT
Description: as §1, §2

[2] = effect of surfactant on solubility and stability of the supersaturated condition (0.01 N HCl, 37° C.); assay type: physicochemical
Description: Aqueous solutions of 2.5% (w/v) of hydroxypropyl-β-cyclodextrin (HPβCD), 2.5% (w/v) of Vit E TPGS [2], 2.5% (w/v) Cremophor RH 40 [3], 2.5% (w/v) of sodium lauryl sulfate or 2.5% (w/v) of PEG 4000 [5] in 0.01 N HCl at 37° C. were prepared.
To 10 ml of these solutions, with stirring, a concentrated solution of R278474 or R165335 in N,N-dimethylformamide (100 mg/ml) was added dropwise until precipitation of the drug compound was observed. After 5, 30, 60 and 120 minutes, the concentration of dissolved R278474 or R165335 expressed in mg % (i.e. the number of mg dissolved in 100 ml) was determined.

[3] = [1] 2.5% (w/v) HPβCD in 0.01 N HCl, 5 minutes
[4] = [1] 2.5% (w/v) HPβCD in 0.01 N HCl, 30 minutes
[5] = [1] 2.5% (w/v) HPβCD in 0.01 N HCl, 60 minutes
[6] = [1] 2.5% (w/v) HPβCD in 0.01 N HCl, 120 minutes
[7] = [5] 2.5% (w/v) PEG 4000 in 0.01 N HCl, 5 minutes
[8] = [5] 2.5% (w/v) PEG 4000 in 0.01 N HCl, 30 minutes
[9] = [5] 2.5% (w/v) PEG 4000 in 0.01 N HCl, 60 minutes
[10] = [5] 2.5% (w/v) PEG 4000 in 0.01 N HCl, 120 minutes

Row | melting point | SMILES | CC50 [1] | pSI (HIV) | further results
1 | 250 °C | Cc1cc(/C=C\Cl)cc(C)c1Nc1ccnc(Nc2ccc(C#N)cc2)n1 | – | – | –
2 | 223 °C | Cc1cc(C=C(Br)Br)cc(C)c1Nc1ccnc(Nc2ccc(C#N)cc2)n1 | – | – | –
3 | 212 °C | CCCCN(C)C(=O)/C=C/c1cc(C)c(Oc2ccnc(Nc3ccc(C#N)cc3)n2)c(C)c1 | – | – | –
4 | 132 °C | Cc1ccc(N(C)C)c(C)c1Nc1ccnc(Nc2ccc(C#N)cc2)n1 | – | – | –
5 | 120 °C | Cc1cc(/C=C/c2cccnc2)cc(C)c1Nc1ccnc(Nc2ccc(C#N)cc2)n1 | – | – | –
6 | 150 °C | Cc1cc(C(=O)CC#N)cc(C)c1Nc1ccnc(Nc2ccc(C#N)cc2)n1 | – | – | –
7 | – | Cc1cc(-c2ccco2)cc(C)c1Nc1ccnc(Nc2ccc(C#N)cc2)n1 [Compound 3] | 3.16 µM | −2.9 | –
8 | – | CO/N=C(\c1cc(C)c(Nc2ccnc(Nc3ccc(C#N)cc3)n2)c(C)c1)C(C)C [Compound 9] | 15.8 µM | −4 | –
9 | – | C/C(C#N)=C/c1cc(C)c(Nc2ccnc(Nc3ccc(C#N)cc3)n2)c(C)c1 [Compound 11] | 2 µM | −3.5 | IC50 (HIV): 0.631 nM
10 | – | Cc1cc(C(O)CC#N)cc(C)c1Nc1ccnc(Nc2ccc(C#N)cc2)n1 (centres unmarked) [Compound 18] | 12.6 µM | −4.0 | –
11 | – | Cc1cc(-c2ccsc2)cc(C)c1Nc1ccnc(Nc2ccc(C#N)cc2)n1 [Compound 21] | 12.6 µM | −3.5 | –
12 | – | Cc1cc(CCC#N)cc(C)c1Nc1ccnc(Nc2ccc(C#N)cc2)n1 [Compound 24] | 2 µM | −3.4 | –
13 | – | CC(=O)c1cccc(-c2cc(C)c(Nc3ccnc(Nc4ccc(C#N)cc4)n3)c(C)c2)c1 [Compound 34] | 15.8 µM | −3.2 | –
14 | – | Cc1cc(/C=C(\C#N)c2cccs2)cc(C)c1Nc1ccnc(Nc2ccc(C#N)cc2)n1 [Compound 49] | 15.8 µM | −3.2 | –
15 | – | Cc1cc(Cn2ccnc2)cc(C)c1Nc1ccnc(Nc2ccc(C#N)cc2)n1 [Compound 70] | 15.8 µM | −3.3 | –
16 | – | Cc1cc(CN2CCSC2)cc(C)c1Nc1ccnc(Nc2ccc(C#N)cc2)n1 [Compound 78] | 12.6 µM | −3.5 | –
17 | – | CCN(Cc1ccncc1)Cc1cc(C)c(Nc2ccnc(Nc3ccc(C#N)cc3)n2)c(C)c1 [Compound 79] | 5.01 µM | −2.7 | –

Row | melting point | SMILES | CC50 [1] | pSI (HIV) | further results
18 | 140 °C | CCOCc1ccc(Oc2ccnc(Nc3ccc(C#N)cc3)n2)c(C)c1 [Compound 105] | > 100 µM | <−3.2 | –
19 | 193 °C | Cc1cc(/C=C(/C#N)C(=O)C(C)(C)C)cc(C)c1Nc1ccnc(Nc2ccc(C#N)cc2)n1 [Compound 106] | 6.31 µM | −2.5 | –
20 | 254 °C | Cc1cc(/C=C(/F)C#N)cc(C)c1Nc1ccnc(Nc2ccc(C#N)cc2)n1 [Compound 110] | – | −4.3 | IC50 (HIV): 2.51 nM
21 | > 264 °C | Cc1cc(/C=C/C(=O)N(C)C)cc(C)c1Nc1ccnc(Nc2ccc(C#N)cc2)n1 [Compound 112] | 12.6 µM | −4.2 | –
22 | 168 °C | Cc1cc(/C=C/C(=O)N(C)CCC#N)cc(C)c1Nc1ccnc(Nc2ccc(C#N)cc2)n1 [Compound 114] | 7.94 µM | −3.5 | –
23 | – | Cc1cc(-n2cccc2)cc(C)c1Oc1ccnc(Nc2ccc(C#N)cc2)n1 [Compound 118] | 79.4 µM | <−4.1 | –
24 | – | Cc1cc(/C(Cl)=C\C#N)cc(C)c1Nc1ccnc(Nc2ccc(C#N)cc2)n1 [Compound 124] | 20 µM | −3.8 | –
25 | > 260 °C | Cc1cc(-c2ccc(C#N)o2)cc(C)c1Nc1ccnc(Nc2ccc(C#N)cc2)n1 [Compound 126] | 12.6 µM | −3.5 | –
26 | – | Cc1cc(/C=C/c2cccnc2)cc(C)c1Nc1ccnc(Nc2ccc(C#N)cc2)n1 [Compound 145] | 5.01 µM | −3.4 | –
27 | – | Cc1cc(/C=C/C(=O)N2CCN(C)CC2)cc(C)c1Nc1ccnc(Nc2ccc(C#N)cc2)n1 [Compound 155] | 0.501 µM | −2.5 | –
28 | – | Cc1cc(/C=C/C(=O)N2CCOCC2)cc(C)c1Nc1ccnc(Nc2ccc(C#N)cc2)n1 [Compound 156] | 7.94 µM | −2.6 | –
29 | – | Cc1cc(/C=C/C(=O)N2CC=CC2)cc(C)c1Oc1ccnc(Nc2ccc(C#N)cc2)n1 [Compound 209] | 12.6 µM | −3.7 | –
30 | – | Cc1cc(/C=C/C(=O)N(C)C2CCN(C)CC2)cc(C)c1Oc1ccnc(Nc2ccc(C#N)cc2)n1 [Compound 210] | 15.8 µM | −3.5 | –
31 | – | Cc1cc(/C=C/C(=O)N2CCOCC2)cc(C)c1Oc1ccnc(Nc2ccc(C#N)cc2)n1 [Compound 216] | 10 µM | −3.6 | –
32 | – | Cc1cc(C#N)cc(C)c1Oc1nc(Nc2ccc(C#N)cc2)nc(N)c1Br [Compound R165335, 4-[[6-amino-5-bromo-2-[(4-cyanophenyl)amino]-4-pyrimidinyl]oxy]-3,5-dimethylbenzonitrile] | – | – | concentration of dissolved drug [2, 3]: 0.04 mg %; concentration of dissolved drug [2, 4]: 0.12 mg %; concentration of dissolved drug [2, 5]: 0.17 mg %; concentration of dissolved drug [2, 6]: 0.07 mg %; concentration of dissolved drug ([2]; [3] 2.5% (w/v) Cremophor RH 40 in 0.01 N HCl, 5 minutes): 54.20 mg %; concentration of dissolved drug ([2]; [3] 2.5% (w/v) Cremophor RH 40 in 0.01 N HCl, 30 minutes): 24.88 mg %; concentration of dissolved drug ([2]; [3] 2.5% (w/v) Cremophor RH 40 in 0.01 N HCl, 60 minutes): 20.06 mg %; concentration of dissolved drug ([2]; [3] 2.5% (w/v) Cremophor RH 40 in 0.01 N HCl, 120 minutes): 18.44 mg %; concentration of dissolved drug ([2]; [4] 2.5% (w/v) sodium lauryl sulfate in 0.01 N HCl, 5 minutes): 35.09 mg %; concentration of dissolved drug ([2]; [4] 2.5% (w/v) sodium lauryl sulfate in 0.01 N HCl, 30 minutes): 37.85 mg %; concentration of dissolved drug ([2]; [4] 2.5% (w/v) sodium lauryl sulfate in 0.01 N HCl, 60 minutes): 38.80 mg %; concentration of dissolved drug ([2]; [4] 2.5% (w/v) sodium lauryl sulfate in 0.01 N HCl, 120 minutes): 38.35 mg %; concentration of dissolved drug [2, 7]: 0.02 mg %; concentration of dissolved drug [2, 8]: 0.04 mg %; concentration of dissolved drug [2, 9]: 0.07 mg %; concentration of dissolved drug [2, 10]: 0.04 mg %
33 | – | Cc1cc(C=CC#N)cc(C)c1Nc1ccnc(Nc2ccc(C#N)cc2)n1 [Compound R278474, 4-[[4-[[4-(2-cyanoethenyl)-2,6-dimethylphenyl]amino]-2-pyrimidinyl]amino]benzonitrile] | – | – | concentration of dissolved drug ([2]; 0.01N HCl, 5 minutes): 18.02 mg %; concentration of dissolved drug ([2]; 0.01N HCl, 30 minutes): 16.30 mg %; concentration of dissolved drug ([2]; 0.01N HCl, 60 minutes): 15.90 mg %; concentration of dissolved drug ([2]; 0.01N HCl, 120 minutes): 15.95 mg %; concentration of dissolved drug [2, 3]: 27.68 mg %; concentration of dissolved drug [2, 4]: 24.80 mg %; concentration of dissolved drug [2, 5]: 24.40 mg %; concentration of dissolved drug [2, 6]: 24.10 mg %; concentration of dissolved drug ([2]; [2] 2.5% (w/v) Vit E TPGS in 0.01 N HCl, 5 minutes): 91.75 mg %; concentration of dissolved drug ([2]; [2] 2.5% (w/v) Vit E TPGS in 0.01 N HCl, 30 minutes): 83.50 mg %; concentration of dissolved drug ([2]; [2] 2.5% (w/v) Vit E TPGS in 0.01 N HCl, 60 minutes): 76.25 mg %; concentration of dissolved drug ([2]; [2] 2.5% (w/v) Vit E TPGS in 0.01 N HCl, 120 minutes): 75.25 mg %; concentration of dissolved drug [2, 7]: 23.60 mg %; concentration of dissolved drug [2, 8]: 21.60 mg %; concentration of dissolved drug [2, 9]: 20.60 mg %; concentration of dissolved drug [2, 10]: 20.10 mg %
